Data reported in patent US9567586B2, “EpCAM aptamer for detection of cancer stem cells” (DEAKIN UNIVERSITY, priority 2012, dated 2017).

Columns and labels:
HT-29 tumor sphere = assay: Penetration and retention in HT-29 tumor sphere (confocal microscopy); assay type: cell-based, human; conditions: for penetration into tumor sphere: 100 nM, 0.5-4 h incubation, sphere ~300-400 μm; for fluorescence signal retained in tumor sphere: 4 h incubation, wash, further 24 h in culture medium
Experimental: HT-29 or HEK293T cells were cultured in stem cell culture medium (DMEM/F12 with 20 ng/ml EGF and FGF and B27). […] After incubating for 0.5, 1, 2 or 4 h, the spheres were washed twice with PBS and imaged via fluorescence confocal microscopy. A phase contrast image of the sphere was also taken for each sample. Panel A fluorescence image for antibody EpCAM, Panel B phase contrast image for tumor sphere. Panel C: fluorescence image for aptamer EpCAM 23, Panel D: phase contrast image for tumor sphere. Panel E: fluorescence image aptamer control, Panel F: phase contrast image for tumor sphere.
Tumour spheres were incubated with EpCAM antibody, aptamer-23 or control aptamer for 4 h. After washing with PBS twice, the tumor spheres were incubated with the culture medium for a further 24 h followed by confocal microscopy. Panel A: fluorescence image for antibody or aptamer. Panel B: phase contrast image for tumour sphere.
To study the ability of EpCAM aptamer or antibody to penetrate tumors, the inventors used a three-dimensional in vitro tumor sphere model. […] After incubating for the indicated time, the spheres were washed twice with PBS and imaged via fluorescence confocal microscopy. A phase contrast image of the sphere was also taken for each sample. […] A retention study was performed whereby the tumour spheres were incubated with EpCAM antibody, aptamer-23 or control aptamer for 4 h, after washing with PBS twice, the tumor spheres were incubated with the culture medium for a further 24 h followed by confocal microscopy.

EpCAM [1] = assay: Immunofluorescence staining of paraffin embedded xenograft tumour sections; set-up: species or system human; key to Quantification of anti-EpCAM staining by immunofluorescence: ‘−’ no staining; ‘+’ faint incomplete staining in >10% of cells; ‘++’ moderate complete membrance staining; ‘+++’ strong complete membrance staining; conditions: for Quantification of anti-EpCAM staining by immunofluorescence: U118MG xenograft
Experimental: (§1) A: Immunofluorescence staining of breast cancer (T47D, MCF7 and MDA-MB-231), colon cancer (HT-29) and glioblastoma (U118MG) xenograft tumours by EpCAM aptamers, DT3 and 23, control aptamer and the anti-EpCAM antibody, 323/A3 (Blue: nuclei; Red: EpCAM positive staining). B: Immunohistochemistry was performed with the anti-EpCAM antibody BerEP4, and all tumours were evaluated by haematoxylin and eosin staining for morphological confirmation. Aptamer staining was performed for 15 min at 37° C., while 323/A3 staining was performed at 4° C. overnight and BerEP4 was performed at room temperature for 20 min. All fluorescent images were taken at 60×, while light microscopy images were taken at 20×. Images are representative of at least three separate experiments. Scale bar: 50 μm.
(§2) The cell lines of human origin used in this study were purchased from American type Culture Collection. They were glioblastoma U118-MG; breast carcinoma MCF-7, MDA-MB-231 and T47D; and colorectal adenocarcinoma HT-29. Cells were grown and maintained in culture with Dulbecco's Modified Eagle medium (DMEM) (Invitrogen, Victoria, Australia) supplemented with 10% fetal calf serum (MCF-7, T47D, HT-29, and U118-MG), or Roswell Park Memorial Institute 1640 (RPMI 1640) (Invitrogen) with 10% fetal calf serum (MDA-MB-231). Cells were maintained at 37 ^CC in a humidified atmosphere containing 5% CO2. For xenograft studies, single cell suspensions were harvested by trypsinisation, washed with PBS and resuspended in 0.1 mL of PBS for implantation in BALB/c-Foxn1 ^nu female mice. Once tumours had reached approximately […], they were excised and fixed in 10% neutral buffered formalin prior to processing and embedding. All animal procedures were approved by Deakin University Animal Welfare Committee, and in accordance with the Australian Code of Practice for the Care and Use of Animals for Scientific Purposes.
(§3) Sections from each of the xenograft tumours were cut at 4 μm onto polylysine coated slides prior to deparaffinisation with Histoclear and rehydration through graded ethanol. Heat induced antigen retrieval was performed in a microwave oven using Tris-EDTA buffer (10 mM Tris, 1 mM EDTA, 0.05% Tween 20, pH 9.0) for 20 min and the slides were allowed to cool prior to blocking with 0.1 mg/mL tRNA, 0.1 mg/mL salmon sperm DNA and 1 mg/mL bovine serum albumin (BSA) in phosphate buffered saline (PBS) for 20 min. Following the blocking step, slides were washed in PBS containing 0.1% Tween 20 twice for 2 min prior to incubation with either aptamer or antibody. Aptamers were prepared as previously described (Shigdar S et al, supra). Briefly, aptamers were heated to 85° C. for 5 min, allowed to cool to room temperature for 10 min and then heated at 37° C. for 15 min. Slides were incubated with aptamers at 100 nM concentration in a solution of PBS containing 5 mM MgCl2, 0.1 mg/mL tRNA, 1 mg/mL BSA, 10% dextran sulphate and 500 μg/mL heparin for 15 min at 37° C. The slides were then washed three times for 5 min each prior to incubation with Bisbenzimide Hoechst 33342 (3 μg/mL) for 10 min. Slides were then mounted using VECTASHIELD and coverslipped prior to visualisation using a Fluoview FV10i laser scanning confocal microscope. All images used for direct comparison were taken with identical exposure parameters and are presented without any digital contrast alteration or background subtraction. Antibody staining was performed using the anti-EpCAM antibody 323/A3 (ab8601, Abcam). […]

EpCAM [2] = biological target: T1, EpCAM (Homo sapiens, UniProt P16422); assay: as above; set-up: from tissue; host or cells: xenograft tumours of T47D, MCF7, MDA-MB-231, HT-29 and U118MG cells grown in BALB/c-Foxn1 nu mice, formalin-fixed and paraffin-embedded; key to Quantification of anti-EpCAM staining by immunofluorescence: ‘−’ no staining; ‘+’ faint incomplete staining in >10% of cells; ‘++’ moderate complete membrance staining; ‘+++’ strong complete membrance staining
T1 sequence (P16422 24-314): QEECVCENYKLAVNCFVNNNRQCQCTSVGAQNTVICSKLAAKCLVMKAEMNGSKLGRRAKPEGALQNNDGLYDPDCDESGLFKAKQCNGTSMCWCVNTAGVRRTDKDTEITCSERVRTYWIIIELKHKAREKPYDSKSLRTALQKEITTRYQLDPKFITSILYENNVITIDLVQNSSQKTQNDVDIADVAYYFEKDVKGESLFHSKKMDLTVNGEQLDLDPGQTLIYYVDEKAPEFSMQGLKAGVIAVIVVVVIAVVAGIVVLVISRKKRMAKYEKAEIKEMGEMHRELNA
Experimental: as §1, §2
as §3, with “Abcam). Slides were washed and blocked following the same protocol as previously described prior to antibody staining. The antibody was prepared at a concentration of 10 μg/mL and the slides were incubated overnight at 4° C. Slides were then washed three times for 5 min followed by incubation with a goat-anti-mouse IgG AlexaFluor 647 conjugate (Invitrogen) at a concentration of 10 μg/mL for 2 h prior to washing, staining with Bisbenzimide Hoechst 33342, and coverslipping.” for “Abcam).”

| Substance | penetration into tumor sphere (HT-29 tumor sphere) | fluorescence signal retained in tumor sphere (HT-29 tumor sphere) | retention by the tumor cells (HT-29 tumor sphere; after 4 h incubation and wash) | Quantification of anti-EpCAM staining by immunofluorescence (EpCAM [1]) | staining of U118MG xenograft (in words) (EpCAM [1]; U118MG xenograft that does not express EpCAM) | staining of HT-29 xenograft sections (in words) (EpCAM [2]; HT-29 colorectal cancer xenograft) | Quantification of anti-EpCAM staining by immunofluorescence (EpCAM [2]; HT-29 xenograft) | Quantification of anti-EpCAM staining by immunofluorescence (EpCAM [2]; MCF7 xenograft) | Quantification of anti-EpCAM staining by immunofluorescence (EpCAM [2]; MDA-MB-231 xenograft) | detection of EpCAM in MDA-MB-231 xenograft tumour (in words) (EpCAM [2]; MDA-MB-231 xenograft, low EpCAM expression) | Quantification of anti-EpCAM staining by immunofluorescence (EpCAM [2]; T47D xenograft) | staining of human breast cancer xenografts (in words) (EpCAM [2]; T47D, MCF7 and MDA-MB-231 xenografts, 100 nM, 15 min, 37° C., dextran sulphate and heparin) |
| --- | --- | --- | --- | --- | --- | --- | --- | --- | --- | --- | --- | --- |
| 5′-ACGUAUCCCUUUUCGCGUA-3′ (RNA aptamer, fluorescent dye conjugate used, modifications not given here, further chemistry not given here) [compound 23] | could penetrate into the core or center of the tumor sphere | clearly detectable signal | at least 24 hours | − | no staining detectable | strong positive staining | +++ | ++ | + (‘+’ faint incomplete staining in >10% of cells) | successfully detect EpCAM | +++ | highly sensitive staining |
| 5′-DY647-mGCmGACUmGmGUUmACCCmGmGUCmGdT-3′ (GCGACUGGUUACCCGGUCGN; 5' DY647, 2'-O-methyl, 3' dT, further chemistry not given here) [Control] | only limited non-specific binding | very weak signal |  | − |  |  | − | − | − |  | − |  |
